# Test system: human hepatoma Huh-7 cell line harboring a HCV replicon
# Test: HCV replicon assay (inhibition of viral replication, luciferase)
# Format: cell-based
# Details: Hepatitis C virus, 72 h; 2 μM; Huh-7 HCV replicon cells, 3 days incubation; inhibition of viral replication; read-out: % inhibition at 2 μM
# In short: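 Huh-7 replicon cells (1600/well) exposed 3 days at 37 °C to 10-point 3-fold dilutions, 0.44% DMSO. Replication measured by Dual-Glo luciferase, background from ITMN-191 wells; cytotoxicity by calcein AM. EC50/CC50 from Hill fit; % inhibition at fixed concentration derivable from fit.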
row,Compound,inhibition at 2 µM
1,"CC1CCC(C(=O)N(c2cc(C#CC(C)(C)C)sc2C(=O)O)C2CCC(NN(C)c3ccc(O)nn3)CC2)CC1 (stereo not shown) [Compound 82, 5-(3,3-Dimethyl-but-1-ynyl)-3-[{4-[N′-(6-hydroxy-pyridazin-3-yl)-N′-methyl-hydrazino]-cyclohexyl}-(4-methyl-cyclohexanecarbonyl)-amino]-thiophene-2-carboxylic acid]",100%
2,"CC1CCC(C(=O)N(c2cc(C#CC(C)(C)C)sc2C(=O)O)C2CCC(NN(C)c3ccc(Cl)nn3)CC2)CC1 (stereo not shown) [Compound 83, 3-[{4-[N′-(6-Chloro-pyridazin-3-yl)-N′-methyl-hydrazino]-cyclohexyl}-(4-methyl-cyclohexanecarbonyl)-amino]-5-(3,3-dimethyl-but-1-ynyl)-thiophene-2-carboxylic acid]",99.9%
3,"CC(C)(C)C#Cc1cc(N(C(=O)[C@H]2CC[C@H](C)CC2)C2CCC(=NOCc3ccccn3)CC2)c(C(=O)O)s1 (stereo partly drawn) [Compound 112, 5-(3,3-Dimethyl-but-1-ynyl)-3-{(4-trans-methyl-cyclohexanecarbonyl)-[4-(pyridin-2-ylmethoxyimino)-cyclohexyl]-amino}-thiophene-2-carboxylic acid]",99.9%
4,CC(C)(C)C#Cc1cc(N(C(=O)[C@H]2CC[C@H](C)CC2)C2CCC(=NOCc3ccccc3)CC2)c(C(=O)O)s1 (stereo partly shown) [Compound 113],98.1%
5,"CC(C)(C)C#Cc1cc(N(C(=O)[C@H]2CC[C@H](C)CC2)C2CCC(=NOCn3cncn3)CC2)c(C(=O)O)s1 (stereo partly shown) [Compound 114, 3-(N-(4-((1H-1,2,4-Triazol-1-yl)methoxyimino)cyclohexyl)-4-methylcyclohexanecarboxamido)-5-(3,3-dimethylbut-1-ynyl)thiophene-2-carboxylic acid]",100%
6,"CC(C)(C)C#Cc1cc(N(C(=O)[C@H]2CC[C@H](C)CC2)C2CCC(=NOCC(=O)O)CC2)c(C(=O)O)s1 (stereo partly shown) [Compound 115, 3-(N-(4-(Carboxymethoxyimino)cyclohexyl)-4-methylcyclohexanecarboxamido)-5-(3,3-dimethylbut-1-ynyl)thiophene-2-carboxylic acid]",99.8%
7,"CC(C)(C)C#Cc1cc(N(C(=O)[C@H]2CC[C@H](C)CC2)C2CCC(=NOCC#N)CC2)c(C(=O)O)s1 (stereo partly shown) [Compound 116, 3-(N-(4-(Cyanomethoxyimino)cyclohexyl)-4-methylcyclohexanecarboxamido)-5-(3,3-dimethylbut-1-ynyl)thiophene-2-carboxylic acid]",99.9%
8,"CC1CCC(C(=O)N(c2cc(C#CC(C)(C)C)sc2C(=O)O)C2CCC(=NOCc3ccncc3)CC2)CC1 (stereo not shown) [Compound 117, 5-(3,3-Dimethylbut-1-ynyl)-3-(4-methyl-N-(4-(pyridin-4-ylmethoxyimino)cyclohexyl)cyclohexanecarboxamido)thiophene-2-carboxylic acid]",99.9%
9,"CC1CCC(C(=O)N(c2cc(C#CC(C)(C)C)sc2C(=O)O)C2CCC(=NOCc3cccnc3)CC2)CC1 (stereo not shown) [Compound 118, 5-(3,3-Dimethylbut-1-ynyl)-3-(4-methyl-N-(4-(pyridin-3-ylmethoxyimino)cyclohexyl)cyclohexanecarboxamido)thiophene-2-carboxylic acid]",100%
10,"CC(C)(C)C#Cc1cc(N(C(=O)[C@H]2CC[C@H](C)CC2)C2CCC(=NOc3ccccc3)CC2)c(C(=O)O)s1 (stereo partly shown) [Compound 119, 5-(3,3-Dimethylbut-1-ynyl)-3-(4-methyl-N-(4-(phenoxyimino)cyclohexyl)cyclohexanecarboxamido)thiophene-2-carboxylic acid]",97.1%
11,"CON=C1CCC(N(C(=O)C2CCC(C)CC2)c2cc(C#CC(C)(C)C)sc2C(=O)O)CC1 (stereo not shown) [Compound 120, 5-(3,3-Dimethylbut-1-ynyl)-3-(N-(4-(methoxyimino)cyclohexyl)-4-methylcyclohexanecarboxamido)thiophene-2-carboxylic acid]",99.9%
12,"CC1CCC(C(=O)N(c2cc(C#CC(C)(C)C)sc2C(=O)O)C2CCC(=NOCc3ccc(S(C)(=O)=O)cc3)CC2)CC1 (stereo not shown) [Compound 121, 3-(N-(4-(4-(Methylsulfonyl)benzyloxyimino)cyclohexyl)-4-methylcyclohexanecarboxamido)-5-(3,3-dimethylbut-1-ynyl)thiophene-2-carboxylic acid]",99.9%
13,CC1CCC(C(=O)N(c2cc(C#CC(C)(C)C)sc2C(=O)O)N(C)C2CCC3(CC2)OCCO3)CC1 (stereo not shown) [Compound 122],99.7%
14,"CC1CCC(C(=O)N(c2cc(C#CC(C)(C)C)sc2C(=O)O)N(C)[C@H]2CC[C@@H](O)CC2)CC1 (stereo partly shown) [Compound 123, 3-(2-(4-hydroxycyclohexyl)-2-methyl-1-(4-methylcyclohexanecarbonyl)hydrazinyl)-5-(3,3-dimethylbut-1-ynyl)thiophene-2-carboxylic acid]",99.9%
15,"CC1CCC(C(=O)N(c2cc(C#CC(C)(C)C)sc2C(=O)O)N(C)C2CCN(C(=O)OC(C)(C)C)CC2)CC1 (stereo not shown) [Compound 127, 4-[N′-[2-carboxy-5-(3,3-dimethyl-but-1-ynyl)-thiophen-3-yl]-N-methyl-N′-(4-methyl-cyclohexanecarbonyl)-hydrazino]-piperidine-1-carboxylic acid tert-butyl ester]",98.3%
16,"CC1CCC(C(=O)N(c2cc(C#CC(C)(C)C)sc2C(=O)O)N(C)C2CCNCC2)CC1 (stereo not shown) [Compound 128, 5-(3,3-dimethyl-but-1-ynyl)-3-[N′-methyl-N-(4-methyl-cyclohexanecarbonyl)-N′-piperidin-4-yl-hydrazino]-thiophene-2-carboxylic acid]",99.8%
17,"CC1CCC(C(=O)N(c2cc(C#CC(C)(C)C)sc2C(=O)O)N(C)C2CCN(C)CC2)CC1 (stereo not shown) [Compound 129, 5-(3,3-dimethyl-but-1-ynyl)-3-[N′-methyl-N-(4-methyl-cyclohexanecarbonyl)-N′-(1-methyl-piperidin-4-yl)-hydrazino]-thiophene-2-carboxylic acid]",100%
18,"CC1CCC(C(=O)N(c2cc(C#CC(C)(C)C)sc2C(=O)O)N(C)CCOc2cccnc2)CC1 (stereo not shown) [Compound 130, 5-(3,3-dimethyl-but-1-ynyl)-3-{N′-methyl-N-(4-methyl-cyclohexanecarbonyl)-N′-[2-(pyridin-3-yloxy)-ethyl]-hydrazino}-thiophene-2-carboxylic acid]",98.7%
19,"CC1CCC(C(=O)N(c2cc(C#CC(C)(C)C)sc2C(=O)O)N(C)CC2CCOCC2)CC1 (stereo not shown) [Compound 131, 5-(3,3-dimethyl-but-1-ynyl)-3-[N′-methyl-N-(4-methyl-cyclohexanecarbonyl)-N′-(tetrahydro-pyran-4-ylmethyl)-hydrazino]-thiophene-2-carboxylic acid]",99.9%
20,"CC1CCC(C(=O)N(c2cc(C#CC(C)(C)C)sc2C(=O)O)N(C)CCOc2ccccn2)CC1 (stereo not shown) [Compound 132, 5-(3,3-dimethyl-but-1-ynyl)-3-{N′-methyl-N-(4-methyl-cyclohexanecarbonyl)-N′-[2-(pyridin-2-yloxy)-ethyl]-hydrazino}-thiophene-2-carboxylic acid]",77.4%
21,"CC1CCC(C(=O)N(NCCOc2cccnc2)c2cc(C#CC(C)(C)C)sc2C(=O)O)CC1 (stereo not shown) [Compound 133, 5-(3,3-dimethyl-but-1-ynyl)-3-{N-(4-methyl-cyclohexanecarbonyl)-N′-[2-(pyridin-3-yloxy)-ethyl]-hydrazino}-thiophene-2-carboxylic acid]",96.7%
22,"CC1CCC(C(=O)N(c2cc(C#CC(C)(C)C)sc2C(=O)O)N(CCO)C2COC2)CC1 (stereo not shown) [Compound 134, 5-(3,3-dimethyl-but-1-ynyl)-3-[N′-(2-hydroxy-ethyl)-N-(4-methyl-cyclohexanecarbonyl)-N′-oxetan-3-yl-hydrazino]-thiophene-2-carboxylic acid]",99%
23,"CC1CCC(C(=O)N(c2cc(C#CC(C)(C)C)sc2C(=O)O)N(C)CCO)CC1 (stereo not shown) [Compound 135, 5-(3,3-dimethyl-but-1-ynyl)-3-[N′-(2-hydroxy-ethyl)-N′-methyl-N-(4-methyl-cyclohexanecarbonyl)-hydrazino]-thiophene-2-carboxylic acid]",99.8%
24,"CC1CCC(C(=O)N(c2cc(C#CC(C)(C)C)sc2C(=O)O)N(C)C)CC1 (stereo not shown) [Compound 136, 5-(3,3-dimethyl-but-1-ynyl)-3-[N′-dimethyl-N-(4-methyl-cyclohexanecarbonyl)-hydrazino]-thiophene-2-carboxylic acid]",98.9%
25,"CC1CCC(C(=O)N(c2cc(C#CC(C)(C)C)sc2C(=O)O)N(C)c2ccccn2)CC1 (stereo not shown) [Compound 137, 5-(3,3-dimethyl-but-1-ynyl)-3-[N′-methyl-N-(4-methyl-cyclohexanecarbonyl)-N′-pyridin-2-yl-hydrazino]-thiophene-2-carboxylic acid]",100%
26,"CC1CCC(C(=O)N(c2cc(C#CC(C)(C)C)sc2C(=O)O)C2CCN(C(=O)c3cccnc3)CC2)CC1 (stereo not shown) [Compound 140, 5-(3,3-dimethyl-but-1-ynyl)-3-{(4-methyl-cyclohexanecarbonyl)-[1-(pyridine-3-carbonyl)-piperidin-4-yl]-amino}-thiophene-2-carboxylic acid]",99.9%
27,"CC1CCC(C(=O)N(c2cc(C#CC(C)(C)C)sc2C(=O)O)C2CCN(C(=O)c3cnccn3)CC2)CC1 (stereo not shown) [Compound 141, 5-(3,3-dimethyl-but-1-ynyl)-3-{(4-methyl-cyclohexanecarbonyl)-[1′-(pyrazine-2-carbonyl)-piperidin-4-yl]-amino}-thiophene-2-carboxylic acid]",99.9%
28,"CC1CCC(C(=O)N(c2cc(C#CC(C)(C)C)sc2C(=O)O)C2CCN(C(=O)c3cccnc3)C2)CC1 (stereo not shown) [Compound 142, 5-(3,3-Dimethyl-but-1-ynyl)-3-{(4-methyl-cyclohexanecarbonyl)-[1-(pyridine-3-carbonyl)-pyrrolidin-3-yl]-amino}-thiophene-2-carboxylic acid]",99.6%
